Experimental data from ChEMBL document CHEMBL1201862, “PubChem BioAssay data set” (2004).
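Protocol summary: plate cells (96-well), add compound at 5 concentrations, incubate 48 h, interpolate endpoints linearly. GI50 = concentration required for 50% inhibition of growth.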 Active and inactive are the calls of the source. Cut-off read from the data, not from the text of the source: active = GI50 up to about 1.1 µM and inactive = higher.

Experiments:
Assay in all cases: DTP human tumour cell line panel, 48 h
HCC 2998 = tested on: HCC 2998
KM12 = tested on: KM12
LOX IMVI = tested on: LOX IMVI
MDA-MB-231 = tested on: MDA-MB-231
HCT-116 = tested on: HCT-116
K562 = tested on: K562
OVCAR-3 = tested on: OVCAR-3
A498 = tested on: A498
M14 = tested on: M14
NCI/ADR-RES = tested on: NCI/ADR-RES
CAKI-1 = tested on: CAKI-1
Hs-578T = tested on: Hs-578T
SF-268 = tested on: SF-268
SK-MEL-28 = tested on: SK-MEL-28
RXF 393 = tested on: RXF 393
CCRF-CEM = tested on: CCRF-CEM
OVCAR-5 = tested on: OVCAR-5
COLO 205 = tested on: COLO 205
SK-MEL-5 = tested on: SK-MEL-5
SK-OV-3 = tested on: SK-OV-3
NCI-H23 = tested on: NCI-H23
RPMI-8226 = tested on: RPMI-8226
ACHN = tested on: ACHN
SW-620 = tested on: SW-620
U-251 = tested on: U-251
BT-549 = tested on: BT-549
SNB-75 = tested on: SNB-75
HL-60 = tested on: HL-60
TK-10 = tested on: TK-10
OVCAR-8 = tested on: OVCAR-8
EKVX = tested on: EKVX
MCF7 = tested on: MCF7
MOLT-4 = tested on: MOLT-4
SK-MEL-2 = tested on: SK-MEL-2
IGROV-1 = tested on: IGROV-1
SF-295 = tested on: SF-295
NCI-H226 = tested on: NCI-H226
MDA-N = tested on: MDA-N
PC-3 = tested on: PC-3
UACC-257 = tested on: UACC-257
A549 = tested on: A549
OVCAR-4 = tested on: OVCAR-4
NCI-H522 = tested on: NCI-H522
Malme-3M = tested on: Malme-3M
NCI-H460 = tested on: NCI-H460
MDA-MB-435 = tested on: MDA-MB-435
HOP-62 = tested on: HOP-62
786-0 = tested on: 786-0
UACC-62 = tested on: UACC-62
DU-145 = tested on: DU-145
UO-31 = tested on: UO-31
SNB-19 = tested on: SNB-19
HCT-15 = tested on: HCT-15
HT-29 = tested on: HT-29
SF-539 = tested on: SF-539
HOP-92 = tested on: HOP-92
T47D = tested on: T47D
SN12C = tested on: SN12C
SR = tested on: SR

Measured: GI50

CCN1CC2=C(N=c3s/c(=C\c4ccc(Cl)cc4)c(=O)n3C2c2ccc(Cl)cc2)/C(=C/c2ccc(Cl)cc2)C1 (configuration not stated)
> 100 µM: HCT-15
inactive: HCC 2998 > 100 µM | KM12 > 100 µM | LOX IMVI > 100 µM | MDA-MB-231 25.6 µM | HCT-116 44.1 µM | K562 > 100 µM | OVCAR-3 > 100 µM | A498 24.6 µM | M14 73.1 µM | NCI/ADR-RES > 100 µM | CAKI-1 16.4 µM | Hs-578T 25.8 µM | SF-268 24.9 µM | SK-MEL-28 > 100 µM | RXF 393 2.47 µM | CCRF-CEM 73.3 µM | OVCAR-5 > 100 µM | COLO 205 > 100 µM | SK-MEL-5 > 100 µM | SK-OV-3 16.8 µM | NCI-H23 63.1 µM | RPMI-8226 84.9 µM | ACHN 58.7 µM | SW-620 > 100 µM | U-251 20.8 µM | BT-549 26.4 µM | SNB-75 2.37 µM | HL-60 > 100 µM | TK-10 18.9 µM | OVCAR-8 > 100 µM | EKVX > 100 µM | MCF7 > 100 µM | MOLT-4 64.6 µM | SK-MEL-2 26.6 µM | IGROV-1 67.3 µM | SF-295 33 µM | NCI-H226 37 µM | MDA-N > 100 µM | PC-3 > 100 µM | UACC-257 > 100 µM | A549 > 100 µM | OVCAR-4 > 100 µM | NCI-H522 > 100 µM | Malme-3M > 100 µM | NCI-H460 > 100 µM | MDA-MB-435 > 100 µM | HOP-62 14.7 µM | 786-0 10.4 µM | UACC-62 32.2 µM | DU-145 > 100 µM | UO-31 > 100 µM | SNB-19 44.4 µM | HT-29 > 100 µM

COC(=O)CC(C)(N[S+]([O-])c1ccc(C)cc1)c1ccccc1 (configuration not stated)
inactive: HCC 2998 > 100 µM | KM12 > 100 µM | LOX IMVI > 100 µM | MDA-MB-231 > 100 µM | HCT-116 > 100 µM | K562 > 100 µM | OVCAR-3 > 100 µM | A498 > 100 µM | NCI/ADR-RES > 100 µM | Hs-578T > 100 µM | SF-268 > 100 µM | SK-MEL-28 > 100 µM | RXF 393 > 100 µM | OVCAR-5 > 100 µM | COLO 205 > 100 µM | SK-MEL-5 > 100 µM | SK-OV-3 > 100 µM | NCI-H23 > 100 µM | SF-539 > 100 µM | RPMI-8226 > 100 µM | ACHN > 100 µM | SW-620 > 100 µM | U-251 > 100 µM | HL-60 > 100 µM | TK-10 > 100 µM | EKVX > 100 µM | MCF7 > 100 µM | MOLT-4 > 100 µM | HOP-92 > 100 µM | SK-MEL-2 > 100 µM | IGROV-1 > 100 µM | SF-295 > 100 µM | T47D > 100 µM | NCI-H226 > 100 µM | MDA-N > 100 µM | PC-3 > 100 µM | UACC-257 > 100 µM | A549 > 100 µM | SN12C > 100 µM | OVCAR-4 > 100 µM | NCI-H522 > 100 µM | SR > 100 µM | Malme-3M > 100 µM | NCI-H460 > 100 µM | MDA-MB-435 > 100 µM | HOP-62 > 100 µM | 786-0 > 100 µM | UACC-62 > 100 µM | DU-145 > 100 µM | UO-31 > 100 µM | SNB-19 > 100 µM | HT-29 > 100 µM
> 100 µM: HCT-15
